Laboratory results reported in ChEMBL document CHEMBL1128755, “LTD4 Receptor binding activity of novel pyridine chromanols: qualitative correlation with pKa” (Bioorg Med Chem Lett, 1995).

What was measured:
[1] = Association constant (pKa) was determined; type: physicochemical
[2] = Partition coefficient (logP); type: physicochemical; conditions: octanol/water
[3] = molecular target: T1, Cysteinyl leukotriene receptor 1 (Cavia porcellus, UniProt Q2NNR5); experiment: Compound was tested for the inhibition of [3H]leukotriene D4 binding to LTD4 receptor in guinea pig lung membranes; type: cell membranes, Membrane
T1 sequence (Q2NNR5 whole entry): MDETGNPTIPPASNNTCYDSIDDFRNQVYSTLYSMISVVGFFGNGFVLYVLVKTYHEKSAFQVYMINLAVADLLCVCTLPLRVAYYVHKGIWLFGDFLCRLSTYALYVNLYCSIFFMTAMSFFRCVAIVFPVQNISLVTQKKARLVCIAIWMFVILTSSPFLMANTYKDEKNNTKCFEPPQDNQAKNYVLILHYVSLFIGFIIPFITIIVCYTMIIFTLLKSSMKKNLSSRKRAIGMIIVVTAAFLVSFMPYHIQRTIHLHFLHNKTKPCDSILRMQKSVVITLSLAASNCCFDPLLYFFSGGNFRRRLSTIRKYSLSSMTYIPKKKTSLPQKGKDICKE

Row | Compound | pKa [1] | logP [2] | Ki [3]
1 | O[C@@H]1c2cc(OCc3ccccn3)ccc2OC[C@@H]1Cc1cccnc1 | 5.25 | 0.66 | > 100000 nM
2 | c1ccc2ncccc2c1 [QUINOLINE] | 4.81 | – | –
3 | O[C@@H]1c2cc(OCc3ccc4ccccc4n3)ccc2OC[C@@H]1Cc1cccnc1 | 4.81 | 2.04 | 1640 nM
4 | O[C@@H]1c2cc(OCc3cccc(Cl)n3)ccc2OC[C@@H]1Cc1cccnc1 | 0.72 | 1.27 | 23400 nM
5 | O[C@@H]1c2cc(OCc3cccc(F)n3)ccc2OC[C@@H]1Cc1cccnc1 | -0.44 | 0.84 | > 100000 nM

More lines, now with the values ahead:

Row | pKa [1] | logP [2] | Ki [3] | Compound
6 | 5.96 | 1.11 | > 100000 nM | Cc1cccc(COc2ccc3c(c2)[C@@H](O)[C@@H](Cc2cccnc2)CO3)n1
7 | 3.55 | 2.09 | 1560 nM | Cc1nc(COc2ccc3c(c2)[C@@H](O)[C@@H](Cc2cccnc2)CO3)ccc1Br
8 | 1.52 | 0.99 | 240 nM | Cc1nc(COc2ccc3c(c2)[C@@H](O)[C@@H](Cc2cccnc2)CO3)ccc1[N+](=O)[O-]
